From patent publication US12139520B2 (priority 2020, dated 2024) come the findings set out here.

For one data set, the target named is T1, hAMY3 receptor (Homo sapiens, UniProt O60896+P30988).
T1 sequence (P30988 25-474): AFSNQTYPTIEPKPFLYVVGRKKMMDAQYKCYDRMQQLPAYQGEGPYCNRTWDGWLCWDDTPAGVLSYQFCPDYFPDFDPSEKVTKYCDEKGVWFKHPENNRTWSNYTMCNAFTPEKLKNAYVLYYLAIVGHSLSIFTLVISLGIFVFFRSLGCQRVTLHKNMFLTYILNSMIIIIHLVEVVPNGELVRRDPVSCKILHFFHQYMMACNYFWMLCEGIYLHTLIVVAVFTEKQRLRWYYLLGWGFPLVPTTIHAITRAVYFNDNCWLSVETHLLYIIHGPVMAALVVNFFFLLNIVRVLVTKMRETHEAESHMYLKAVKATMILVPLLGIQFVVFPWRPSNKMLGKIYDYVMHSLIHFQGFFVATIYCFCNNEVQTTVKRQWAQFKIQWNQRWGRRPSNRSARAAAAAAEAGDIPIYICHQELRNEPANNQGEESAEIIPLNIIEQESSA
T1 sequence (O60896 24-148 partner): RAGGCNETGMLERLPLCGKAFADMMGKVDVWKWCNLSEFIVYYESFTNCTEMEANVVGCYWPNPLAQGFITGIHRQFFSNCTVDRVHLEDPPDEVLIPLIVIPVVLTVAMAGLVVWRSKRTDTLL
As to the kind of experiment: cAMP assay for in vitro receptor activation, hAMY3-R. To be noted: cAMP assay, hAMY3 receptor; read-out: hAMY3R EC50. In kind it is cell-based. An outline of the steps: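 Monoclonal cell line stably overexpressing human AMY3 receptor, 2000 cells/well in DPBS with 0.05% casein and 0.5 mM IBMX. Stimulated 30 min at room temperature with graded compound doses, human amylin as positive control. cAMP accumulation read by TR-FRET after one hour.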

Data set [1] can be described thus: Physical stability of peptide analogues (Thioflavin T fibrillation). In kind it is physicochemical. The settings on record: maximum ThT signal normalized between hAMY maximum and buffer background; 40° C., shaking, four days; pH 7 per table title. A digest of the protocol:
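Peptides in 50 mM sodium acetate pH 4 or 50 mM sodium phosphate pH 7 were preincubated 1 h, mixed with 4 μM ThT, held at 40° C with 700 rpm shaking before each read. Fluorescence (ex 450/em 480 nm) every 10 min for four days; LOESS-smoothed maximum signal normalized in percent between hAMY and buffer.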

Molecules are shown by their SMILES. Bridge positions count the residues as written; N and C are the ends. Square brackets hold non-standard residues; d marks the D form. Peptide text beside a SMILES is read from it. Hyp = O=C(O)[C@@H]1C[C@@H](O)CN1

Turning to `CC[C@H](C)[C@H](NC(=O)[C@H](CC(N)=O)NC(=O)[C@H](CO)NC(=O)[C@H](CCCNC(=N)N)NC(=O)[C@@H]1CCCN1C(=O)[C@H](C)NC(=O)[C@@H](NC(=O)[C@H](CC(N)=O)NC(=O)[C@H](CC(=O)O)NC(=O)[C@H](CCCCN)NC(=O)[C@H](CC(=O)O)NC(=O)[C@H](CCCCN)NC(=O)[C@H](CC(=O)O)NC(=O)[C@@H](NC(=O)[C@H](Cc1ccccc1)NC(=O)[C@H](CCC(N)=O)NC(=O)[C@H](Cc1ccc(O)cc1)NC(=O)[C@@H](NC(=O)[C@H](CCC(N)=O)NC(=O)[C@H](Cc1c[nH]cn1)NC(=O)[C@H](C)NC(=O)[C@H](CC(C)C)NC(=O)[C@H](CCCNC(=N)N)NC(=O)[C@H](CCC(N)=O)NC(=O)[C@@H](NC(=O)[C@@H](NC(=O)[C@@H]1CSSC[C@H](NC(=O)CN)C(=O)N[C@@H](CCCNC(=N)N)C(=O)N[C@@H]([C@@H](C)O)C(=O)NCC(=O)N[C@@H]([C@@H](C)O)C(=O)N1)[C@@H](C)O)C(C)C)[C@@H](C)CC)[C@@H](C)O)C(C)C)C(=O)NCC(=O)N1CCC[C@H]1C(=O)N[C@@H](CCC(N)=O)C(=O)NCC(=O)N[C@@H](Cc1ccc(O)cc1)C(N)=O` [compound 191] (H-GCRTGTCTVQRLAHQIYQFTDKDKDNVAPRSNIGPQGY-NH2; disulfide 2-7; N-terminus assumed), the EC50 (as a rule, the concentration giving half of the maximal effect) at hAMY3 receptor is 0.098 nM. Also, the “Max ThT signal (%)” value in data set [1] is given as 6.300%.
In the case of `CC[C@H](C)[C@H](NC(=O)[C@H](CC(N)=O)NC(=O)[C@H](CO)NC(=O)[C@H](CCCNC(=N)N)NC(=O)[C@@H]1CCCN1C(=O)[C@H](C)NC(=O)[C@@H](NC(=O)[C@H](CC(N)=O)NC(=O)[C@H](CC(=O)O)NC(=O)[C@H](CCCCN)NC(=O)[C@H](CC(=O)O)NC(=O)[C@H](CCCCN)NC(=O)[C@H](CC(=O)O)NC(=O)[C@@H](NC(=O)[C@H](Cc1ccccc1)NC(=O)[C@H](CCC(N)=O)NC(=O)[C@H](Cc1ccc(O)cc1)NC(=O)[C@@H](NC(=O)[C@H](CCC(N)=O)NC(=O)[C@H](Cc1c[nH]cn1)NC(=O)[C@H](C)NC(=O)[C@H](CC(C)C)NC(=O)[C@H](Cc1c[nH]c2ccccc12)NC(=O)[C@H](CCC(N)=O)NC(=O)[C@@H](NC(=O)[C@@H](NC(=O)[C@@H]1CSSC[C@H](NC(=O)CN)C(=O)N[C@@H](CCCNC(=N)N)C(=O)N[C@@H]([C@@H](C)O)C(=O)NCC(=O)N[C@@H]([C@@H](C)O)C(=O)N1)[C@@H](C)O)C(C)C)[C@@H](C)CC)[C@@H](C)O)C(C)C)C(=O)NCC(=O)N1CCC[C@H]1C(=O)N[C@@H](CC(N)=O)C(=O)NCC(=O)N1C[C@H](O)C[C@H]1C(N)=O` [compound 352] (H-GCRTGTCTVQWLAHQIYQFTDKDKDNVAPRSNIGPNG[Hyp]-NH2; disulfide 2-7; N-terminus assumed), the EC50 on hAMY3 receptor stood at 0.04 nM. Further, the “Max ThT signal (%)” value in data set [1] turned out to be 25.800%.
The corresponding values for `CC[C@H](C)[C@H](NC(=O)[C@H](CCC(N)=O)NC(=O)[C@H](Cc1c[nH]cn1)NC(=O)[C@H](C)NC(=O)[C@H](CC(C)C)NC(=O)[C@H](CCCNC(=N)N)NC(=O)[C@H](CCC(N)=O)NC(=O)[C@@H](NC(=O)[C@@H](NC(=O)[C@@H]1CSSC[C@H](NC(=O)CN)C(=O)N[C@@H](CCCNC(=N)N)C(=O)N[C@@H](Cc2ccccc2)C(=O)NCC(=O)N[C@@H]([C@@H](C)O)C(=O)N1)[C@@H](C)O)C(C)C)C(=O)N[C@@H](Cc1ccc(O)cc1)C(=O)N[C@@H](CCC(N)=O)C(=O)N[C@@H](Cc1ccccc1)C(=O)N[C@H](C(=O)N[C@@H](CC(=O)O)C(=O)N[C@@H](CCCCN)C(=O)N[C@@H](CC(=O)O)C(=O)N[C@@H](CCCCN)C(=O)N[C@@H](CC(=O)O)C(=O)N[C@@H](CC(N)=O)C(=O)N[C@H](C(=O)N[C@@H](C)C(=O)N1CCC[C@H]1C(=O)N[C@@H](CCCNC(=N)N)C(=O)N[C@H](C(=O)N[C@@H](CCCCN)C(=O)N[C@H](C(=O)N[C@@H](CO)C(=O)N1CCC[C@H]1C(=O)N[C@@H](CC(N)=O)C(=O)NCC(=O)N1C[C@H](O)C[C@H]1C(N)=O)[C@@H](C)CC)[C@@H](C)O)C(C)C)[C@@H](C)O` [compound 113] (H-GCRFGTCTVQRLAHQIYQFTDKDKDNVAPRTKISPNG[Hyp]-NH2; disulfide 2-7; N-terminus assumed) are 0.022 nM and 14.700%.
The corresponding values for `CC[C@H](C)[C@@H]1NC(=O)[C@H](CCCNC(=N)N)NC(=O)[C@@H](NC(=O)CN)CSSC[C@@H](C(=O)N[C@H](C(=O)N[C@H](C(=O)N[C@@H](CCC(N)=O)C(=O)N[C@@H](CCCNC(=N)N)C(=O)N[C@@H](CC(C)C)C(=O)N[C@@H](C)C(=O)N[C@@H](Cc2c[nH]cn2)C(=O)N[C@@H](CCC(N)=O)C(=O)N[C@H](C(=O)N[C@@H](Cc2ccc(O)cc2)C(=O)N[C@@H](CCC(N)=O)C(=O)N[C@@H](Cc2ccccc2)C(=O)N[C@H](C(=O)N[C@@H](CC(=O)O)C(=O)N[C@@H](CCCCN)C(=O)N[C@@H](Cc2ccccc2)C(=O)N[C@@H](CCCCN)C(=O)N[C@@H](CC(=O)O)C(=O)N[C@@H](CC(N)=O)C(=O)N[C@H](C(=O)N[C@@H](C)C(=O)N2CCC[C@H]2C(=O)N[C@@H](CCCNC(=N)N)C(=O)N[C@@H](CO)C(=O)N[C@@H](CCCCN)C(=O)N[C@H](C(=O)N[C@@H](CO)C(=O)N2CCC[C@H]2C(=O)N[C@@H](CCC(N)=O)C(=O)N[C@H](C(=O)N2C[C@H](O)C[C@H]2C(N)=O)[C@@H](C)O)[C@@H](C)CC)C(C)C)[C@@H](C)O)[C@@H](C)CC)C(C)C)[C@@H](C)O)NC(=O)[C@H]([C@@H](C)O)NC(=O)CNC1=O` [compound 147] (H-GCRIGTCTVQRLAHQIYQFTDKFKDNVAPRSKISPQT[Hyp]-NH2; disulfide 2-7; N-terminus assumed) are 0.04 nM and 5.100%.
The like results for `CC[C@H](C)[C@H](NC(=O)[C@H](CCC(N)=O)NC(=O)[C@H](Cc1c[nH]cn1)NC(=O)[C@H](C)NC(=O)[C@H](CC(C)C)NC(=O)[C@H](CCCNC(=N)N)NC(=O)[C@H](CCC(N)=O)NC(=O)[C@@H](NC(=O)[C@@H](NC(=O)[C@@H]1CSSC[C@H](NC(=O)CN)C(=O)N[C@@H](CCCNC(=N)N)C(=O)N[C@@H](Cc2ccccc2)C(=O)NCC(=O)N[C@@H]([C@@H](C)O)C(=O)N1)[C@@H](C)O)C(C)C)C(=O)N[C@@H](Cc1ccc(O)cc1)C(=O)N[C@@H](CCC(N)=O)C(=O)N[C@@H](Cc1ccccc1)C(=O)N[C@H](C(=O)N[C@@H](CC(=O)O)C(=O)N[C@@H](CCCCN)C(=O)N[C@@H](CC(=O)O)C(=O)N[C@@H](CCCCN)C(=O)N[C@@H](CC(=O)O)C(=O)N[C@@H](CC(N)=O)C(=O)N[C@H](C(=O)N[C@@H](C)C(=O)N1CCC[C@H]1C(=O)N[C@@H](CCCNC(=N)N)C(=O)N[C@@H](CO)C(=O)N[C@@H](CC(N)=O)C(=O)N[C@H](C(=O)N[C@@H](CO)C(=O)N1CCC[C@H]1C(=O)N[C@@H](CCC(N)=O)C(=O)NCC(=O)N1C[C@H](O)C[C@H]1C(N)=O)C(C)C)C(C)C)[C@@H](C)O` [compound 145] (H-GCRFGTCTVQRLAHQIYQFTDKDKDNVAPRSNVSPQG[Hyp]-NH2; disulfide 2-7; N-terminus assumed) were, in that order, 0.039 nM and 2.000%.
